{
  "source": "patent US20060068496A1",
  "about": "“Differentiation of stem cells” (priority 2004, published 2006)",
  "format_in_all_cases": "cell-based, human",
  "key": {"ACTHep1-6": {"test_system": "ACTHep1-6", "test": "Reversal of transformation of ACTHep1-6 by ponasterone A induced dominant negative RAS", "settings": "10 μM ponasterone A in Med3, 5% serum, 10,000 cells per well", "text": "Identification of a human hepatocyte cell line starting from human EG cells using sequential expression of an activated and a dominant negative transforming gene can be performed as follows. Human EG cells can be transfected with a construct containing the human hepatitis B virus core promoter/enhancer (SEQ ID NO:1) driving an activated H-RAS gene (SEQ ID NO:2) and also optionally containing an ecdysone inducible gene switch promoter (SEQ ID NO:3) driving a dominant negative H-RAS gene (SEQ ID NO:4) (Sandig et al., (1996) Gene Therapy 3, 1002-1009; Saez et al., (2000) Proc. Natl. Acad. Sci. 97, 14512-14517). The activated H-RAS can be transcribed after differentiation of the EG cells. Transformed hepatocytes can be isolated in soft agar, cloned, expanded and frozen. Cultures can be plated at low density then treated with ponasterone A to induce the dominant negative RAS and reverse transformation. Cells are expected to arrest growth at subconfluent densities. Their identity as hepatocytes can be confirmed by production of albumin, cyp1A and cyp3A.\nACTHep1-6 can be further characterized. Individual vials can be thawed and plated in Med3, 5% serum as described above. Cells can be expanded, then plated at a density of 10,000 cells per well in a 96 well plate. […] Cells are selected having the cuboidal appearance of hepatocytes with a prominent nucleus. […]"}, "Hay1 [1]": {"test_system": "Hay1", "test": "Zeocin sensitivity of Hay1 (standard titration curve, selection)", "procedure": "In preparation for the establishment of the frt insert line, the sensitivity of Hay1 to zeocin was tested.\nThe plasmid pFrt/lac/Zeo (Invitrogen) can be transfected into Hay1 using Lipofectamine 2000. After 48 hrs, resistant cells can be selected by changing to medium containing 75 μg/ml Zeocin (Invitrogen). Non-resistant cells are dead in about seven days. An efficiency of about 1×10^−5/μg is expected. Approximately ten individual transfectants can be selected and tested for expression of lacZ. Copy number of the plasmid can be evaluated via Southern blotting. Transfectants with single insertions can be chosen for further analysis. To examine the behavior of the insert during differentiation, cells can be subjected to EB formation, followed by culture in Med3, 5% defined calf serum for one week. They can be reevaluated for lacZ expression. Since Zeo selection can be maintained, it is expected that all surviving cells will retain lacZ expression. It is a general strategy to maintain selective pressure on the inserts to insure expression of the surrounding DNA, as has been successfully employed in a number of other studies (Zweigerdt et al., (2001) Cytotherapy 5, 399-413; Liu et al. (2004) Stem Cells Dev. 13, 636-645; Schuldiner et al., (2003) Stem Cells 21, 257-265)."}, "Hay1 [2]": {"test_system": "Hay1", "test": "Growth of Hay1 in defined medium after removal of individual peptide hormone factors", "settings": "for effect on growth of removal of the factor from the medium: Hay1, defined feeder free medium, factor removed individually", "procedure": "The use of feeder layers complicates the use of stem cells for a variety of applications. Use of feeder layers dramatically raise the background in standard in vitro toxicology assays, such as MTT or resazurin reductions confounding the results. Hay1 can be grown routinely under defined conditions. Standard medium consists of KO-DMEM, 15% KO-serum replacement, glutamine, nonessential amino acids, β-MeSH, 10 ng/ml oncostatin M, 10 ng/ml SCF and 25 ng/ml bFGF. Using this medium, Hay1 continues to express the markers listed above and doubles approximately every three to four days. This is slightly slower than their doubling on feeder layers.\nGrowth of Hay1 was examined under various conditions known to affect stem cell growth and differentiation. Mouse and human EG cells require a source of gp130 signaling for growth in culture (Shamblott et al. (1998); Koshimuzu et al. (1996) Development 122, 1235-1242).\n(§1) Since Oct 4 controls Nanog expression (Rodda et al. (2005)), it was expected that induction of Oct 4 would also raise nanog, and this is what was observed."}, "Oct 4 and Nanog": {"test_system": "Oct 4 and Nanog", "test": "Oct 4 and Nanog expression in Hay1 by real time RT-QPCR", "text": "While surface markers and alkaline phosphatase are convenient markers for stem cells, it has become clear that expression of the transcription factors Oct 4 and Nanog are fundamental characteristics of stem cells (Rodda et al. (2005) J. Biol. Chem. 280, 24731-24737; Chambers et al. (2003) Cell 113, 643-655). Hay1 was examined for expression of these factors using real time RT-QPCR. […] Biomol. Screen. 5, 249-254), a medium that is a mixture of Weymouth's MAB, Ham's F12 and William's E. It also contains 5% defined calf serum (Hyclone). Actin was used as a standard.\nas §1"}, "[3]": {"settings": "Hay1, FGF replaced after withdrawal"}},
  "data": [
    {"molecule": "CC(C)CC[C@@H](O)[C@](C)(O)[C@H]1CC[C@@]2(O)C3=CC(=O)[C@@H]4C[C@@H](O)[C@@H](O)C[C@]4(C)[C@H]3CC[C@]12C", "note": "[ponasterone A]", "values": [
      {"measurement": "growth of cells after addition of ponasterone A", "setting": "ACTHep1-6", "result": "stop growing over the next 24 hours and arrest at subconfluent densities"}
    ]},
    {"molecule": "Cc1c(N)nc([C@H](CC(N)=O)NC[C@H](N)C(N)=O)nc1C(=O)N[C@H](C(=O)N[C@H](C)[C@@H](O)[C@H](C)C(=O)N[C@H](C(=O)NCCC1=N[C@@H](c2nc(C(=O)NCCCCN=C(N)N)cs2)CS1)[C@@H](C)O)[C@@H](O[C@@H]1O[C@@H](CO)[C@@H](O)[C@H](O)[C@@H]1O[C@H]1O[C@H](CO)[C@@H](O)[C@H](OC(N)=O)[C@@H]1O)c1cnc[nH]1", "note": "[zeocin]", "values": [
      {"measurement": "effective selection concentration", "setting": "Hay1 [1]; Hay1, standard titration curve", "result": 75, "unit": "µg/mL"},
      {"measurement": "time until non-resistant cells are dead", "setting": "Hay1 [1]; Hay1 transfected with pFrt/lac/Zeo, medium containing 75 μg/ml Zeocin", "result": "about seven"}
    ]},
    {"molecule": "human Stem Cell Factor [SCF]", "values": [
      {"measurement": "effect on growth of removal of the factor from the medium", "setting": "Hay1 [2]", "result": "some effect on growth"}
    ]},
    {"molecule": "human basic Fibroblast Growth Factor [FGF]", "values": [
      {"measurement": "effect on growth of removal of the factor from the medium", "setting": "Hay1 [2]", "result": "slight negative effect on growth"},
      {"measurement": "effect on growth of removal of the factor from the medium", "setting": "Hay1 [2]; listed as bFGF", "result": "some effect on growth"},
      {"measurement": "effect on morphology of removal of the factor", "setting": "Hay1 [2]; Hay1, defined medium, FGF removed", "result": "flatter and more spread out on the dish"},
      {"measurement": "Nanog expression after replacement of FGF", "setting": "Oct 4 and Nanog; [3]", "result": "raise nanog"},
      {"measurement": "Oct 4 expression after replacement of FGF", "setting": "Oct 4 and Nanog; [3]", "result": "returned Oct 4 expression to its former level"},
      {"measurement": "Oct 4 and Nanog expression after FGF withdrawal", "setting": "Oct 4 and Nanog; Hay1, FGF withdrawn", "result": "dramatic reduction in expression"}
    ]},
    {"molecule": "oncostatin M", "values": [
      {"measurement": "effect on growth of removal of the factor from the medium", "setting": "Hay1 [2]", "result": "completely arrested the growth"},
      {"measurement": "effect on growth of removal of the factor from the medium", "setting": "Hay1 [2]; listed as Onc M", "result": "some effect on growth"},
      {"measurement": "alkaline phosphatase status of cultures after removal of the factor", "setting": "Hay1 [2]; Hay1, defined medium, factor removed", "result": "alkaline phosphatase negative within several days"}
    ]}
  ]
}
